{"source": "patent US4873263A", "about": "“Rectally absorbable form of L-dopa” (priority 1988, dated 1989)", "key": {"[1]": {"assay": "Rat plasma L-dopa and bioavailability after rectal microenema with carbidopa (Example 2)", "set-up": "species or system rats", "conditions": "in vivo", "procedure": "The experimental conditions of Example 1 were repeated, except that each formulation also contained 0.5 mg carbidopa, a decarboxylase inhibitor which is included to decrease L-dopa metabolism."}, "[2]": {"conditions": "dog, in vivo; cited from earlier work"}, "[3]": {"assay": "L-dopa bioavailability in Beagle dogs after rectal administration, oral carbidopa pretreatment (Example 3)", "format": "in vivo", "conditions": "in words", "procedure": "Aqueous formulations (pH 5.5, 0.1% ascorbic acid, 0.1 ml) containing […] L-dopa ethyl ester HCl (equivalent to 50 mg L-dopa) were prepared for administration to Beagle dogs. Each dog received the rectal formulation following a 3-day pretreatment with oral carbidopa (25 mg b.i.d.). Blood samples were collected for 360 minutes and plasma L-dopa levels determined by HPLC."}, "[4]": {"conditions": "rat, in vivo", "experimental": "Aqueous microenemas (250 μl) containing either 2.0 mg L-dopa or 2.66 mg L-dopa ethyl ester HCl (equivalent to 2.0 mg L-dopa) were prepared. The solutions were adjusted to pH 5.5 and contained 0.02% ascorbic acid to prevent oxidation. Blood samples were collected following rectal administration to anesthetized rats, and plasma L-dopa determined by HPLC."}}, "note": "Structures can show the parent of a compound that is named as a salt. Where two headings read alike, the source gives them in different places.", "data": [{"smiles": "CCOC(=O)[C@@H](N)Cc1ccc(O)c(O)c1", "note": "[L-dopa ethyl ester HCl]", "values": [{"measurement": "Percent L-dopa Bioavailability", "setting": "[1]", "result": "62 ± 32.7", "unit": "%"}, {"measurement": "absorption by the rectal route in dogs", "setting": "[2]", "result": "not significantly absorbed in dogs"}, {"measurement": "plasma drug levels", "setting": "[3]", "result": "significant increase in plasma drug levels"}, {"measurement": "Percent L-dopa Bioavailability", "setting": "[4]", "result": "12 ± 2.4", "unit": "%"}, {"measurement": "plasma levels of L-dopa", "setting": "[4]", "result": "significantly higher plasma levels of L-dopa"}]}]}
